This is an account of results in US4371534A, “N4-Substituted tetrahydro-1,2,4-oxadiazin-5-one derivatives having anticonvulsive activity and pharmaceutical compositions containing them” (Richter Gedeon Vegyeszeti Gyar RT., priority 1980, dated 1983).

The subject of data set [1] is mice (tonic, extensor spasm of the lower limbs). As to the kind of experiment: Maximum electroshock (MES), anticonvulsive activity. To be noted: Mus musculus, po, 1 h; 20 mg/kg p.o., one hour after administration; corneal electrode 20 mA, 0.2 sec; absence of tonic extensor spasm = protection. Format: in vivo, CFLP (LATI) mice. As to the method:
The pharmaceutical activity of the new compounds according to the invention was tested by conventional animal tests. Tests were performed on CFLP (LATI) mice of both sexes weighing 18 to 22 g. each, in groups of 10. Test compounds were suspended in a 5% aqueous "Tween 80" solution and the suspension was administered orally, through a probe. When testing anticonvulsive activity 20 mg./kg. doses, while in the tests concerning neurotoxic activity 80 mg/kg. doses were employed. The induced effect was measured one hour after administration by the following methods: (a) Maximum electroshock (MES): According to the method of E. A. Swinyard et al. [J. Pharmacol. 106, 319 (1952)] test animals were shocked by a corneal electrode (20 mA, 0.2 sec.). On the stimulation 100% of the control animals reacted by a tonic, extensor spasm of the lower limbs. Absence of this phenomena was considered a protection due to the treatment.

Data set [2] deals with mice (pentetrazole-induced clonic and tonic, extensor spasm). As to the kind of experiment: Inhibition of spasm induced by pentetrazole (PTT). The following applies: Mus musculus, po, 1 h, 20 mg/kg p.o., 125 mg/kg pentetrazole s.c., one hour. Format: in vivo, CFLP (LATI) mice. As to the method:
The pharmaceutical activity of the new compounds according to the invention was tested by conventional animal tests. Tests were performed on CFLP (LATI) mice of both sexes weighing 18 to 22 g. each, in groups of 10. Test compounds were suspended in a 5% aqueous "Tween 80" solution and the suspension was administered orally, through a probe. When testing anticonvulsive activity 20 mg./kg. doses, while in the tests concerning neurotoxic activity 80 mg/kg. doses were employed. The induced effect was measured one hour after administration by the following methods: (b) inhibition of spasm induced by pentetrazole (PTT) According to the method of Cr. N. Everett and R. K. Richards [J. Pharmacol. Exp. Therap. 81, 402 (1944)] 125 mg./kg. of pentatrazole (pentamethylene tetrazole) were administrated to the animals subcutaneously. One hour after administration the animals were observed. Absence of the clonic spasm (Kl) and the tonic, extensor spasm of lower limbs (TE) was considered a protection due to the administration of test compounds.

The subject of data set [3] is mice (muscle coordination). As to the kind of experiment: Neurotoxic activity: muscle coordination (RR) on rotating rod. It counts as in vivo, CFLP (LATI) mice. To be noted: 80 mg/kg p.o., one hour after administration; animals falling from rotating rod within 120 seconds, percentage of control animals. As to the method: (§1) The pharmaceutical activity of the new compounds according to the invention was tested by conventional animal tests. Tests were performed on CFLP (LATI) mice of both sexes weighing 18 to 22 g. each, in groups of 10. Test compounds were suspended in a 5% aqueous "Tween 80" solution and the suspension was administered orally, through a probe. When testing anticonvulsive activity 20 mg./kg. doses, while in the tests concerning neurotoxic activity 80 mg/kg. doses were employed. The induced effect was measured one hour after administration by the following methods:
Muscle coordination (RR) on mice
Change of the coordinated muscular movement was tested according to W. J. Kinnard and C. F. Carr [Brit. J. Pharmacol, 121, 354 (1957)], on a rotating rod (diameter: 20 mm., frequency: 12/min.). Normal trained animals are able to remain on the rotating rod for about 120 seconds.

Data set [4] has as its system mice. Kind of data set: Acute toxicity (LD50). It counts as in vivo. The following applies: p.o., single doses, evaluation after 14 days, probit analysis. As to the method:
as §1
Toxicity of the compounds was examined by administration of various single doses. Evaluation was made 14 days after administration. The LD50 -values were calculated on the basis of the number of animals that died in 14 days by probite analysis, by means of a TPA/101 computer.

Setting [5] is: absence of clonic spasm, read-out: PTT Cl.
The mark [6] stands for this setting: absence of tonic, extensor spasm of lower limbs, read-out: PTT TE.

Read-outs that look alike come from different tables or passages of the source.

As to `CCC1(c2ccccc2)NC(=O)N(C)C1=O` (centres unmarked) [3-methyl-5-ethyl-5-phenylhydantoine, reference compound], the responders at 20 mg/kg in data set [1] was determined as 10%; in data set [2] (setting [5]) it was 0%; in data set [2] (setting [6]), 50%. In data set [3], the “RR (muscle incoordination)” value is reported as 50%.
For the compound `CCN1C(=O)CON(C(C)=O)C1c1ccccc1` (centres unmarked) [Example 4, 2-Acetyl-3-phenyl-4-ethyl-tetrahydro-1,2,4-oxadiazin-5-one], the responders at 20 mg/kg came out at 0% in data set [1], 0% in data set [2] (setting [5]) and 20% in data set [2] (setting [6]). Also, in data set [3], the “RR (muscle incoordination)” value came to 20%.
On to `CC(=O)N1OCC(=O)N(CO)C1c1ccccc1` (centres unmarked) [Example 5, 2-Acetyl-3-phenyl-4-hydroxymethyl-tetrahydro-1,2,4-oxadiazin-5-one], for which the responders at 20 mg/kg came out at 60% in data set [1], 0% in data set [2] (setting [5]) and 40% in data set [2] (setting [6]). Moreover, the “RR (muscle incoordination)” value in data set [3] is 20%.
Consider `CC(=O)OCN1C(=O)CON(C(C)=O)C1c1ccccc1` (centres unmarked) [Example 6, 2-Acetyl-3-phenyl-4-acetoxymethyl-tetrahydro-1,2,4-oxadiazin-5-one], for which the responders at 20 mg/kg was 70% in data set [1], 0% in data set [2] (setting [5]) and 60% in data set [2] (setting [6]). Also, in data set [3], the “RR (muscle incoordination)” value is given as 40%.
Regarding `CC(=O)N1OCC(=O)N(CCl)C1c1ccccc1` (centres unmarked) [Example 7, 2-Acetyl-3-phenyl-4-chloromethyl-tetrahydro-1,2,4-oxadiazin-5-one], the responders at 20 mg/kg in data set [1] came to 40%; in data set [2] (setting [5]) it was 0%; in data set [2] (setting [6]), 0%. In data set [3], the “RR (muscle incoordination)” value was 40%.
For `CC(=O)N1OCC(=O)N(C)C1c1ccccc1` (centres unmarked) [Example 10], the results for the responders at 20 mg/kg in data set [1], in data set [2] (setting [5]) and in data set [2] (setting [6]) were 40%, 0% and 20%, respectively. The “RR (muscle incoordination)” value in data set [3] is recorded as 20%.
For `CCCCCCN1C(=O)CON(C(C)=O)C1c1ccccc1` (centres unmarked) [Example 14], the responders at 20 mg/kg amounted to 0% in data set [1], 0% in data set [2] (setting [5]) and 40% in data set [2] (setting [6]). The “RR (muscle incoordination)” value in data set [3] is given as 0%.
`CC(=O)N1OCC(=O)N(COC(=O)c2ccccc2)C1c1ccccc1` (centres unmarked) [Example 18]: the responders at 20 mg/kg in data set [1] turned out to be 40%; in data set [2] (setting [5]), 0%; in data set [2] (setting [6]) it was 70%. Also, in data set [3], the “RR (muscle incoordination)” value is given as 40%.
In the case of `COc1cc(C(=O)OCN2C(=O)CON(C(C)=O)C2c2ccccc2)cc(OC)c1OC` (centres unmarked) [Example 19], the responders at 20 mg/kg in data set [1] is 30%; in data set [2] (setting [5]) it was 0%; in data set [2] (setting [6]), 0%. Further, the “RR (muscle incoordination)” value in data set [3] turned out to be 0%.
The LD50 is the dose at which mortality reaches 50%. Read a high LD50 as a less toxic substance. Consider `O=C1NC(=O)C(c2ccccc2)(c2ccccc2)N1` [diphenylhydantoine, reference compound], for which the values for the responders at 20 mg/kg in data set [1], in data set [2] (setting [5]) and in data set [2] (setting [6]) were 90%, 0% and 80%, respectively. Moreover, the “RR (muscle incoordination)” value in data set [3] is on record as 70%. In data set [4], this compound came in with an LD50 of 279 mg/kg.
